Reference: patent US12180156B2 (priority 2020, dated 2024)
Read-outs that look alike come from different tables or passages of the source.

What was measured:
FIPV = assay: Inhibitory activity against FIPV in cell culture (Table 1); format: cell-based; conditions: Alphacoronavirus 1, cell culture
SARS-CoV-2 [1] = assay: Cell-based assay for antiviral activity, plaque reduction in Vero E6 cells; conditions: mean ± standard deviation
SARS-CoV-2 [2] = assay: Cell-based assay for antiviral activity in A549-ACE2 cells; conditions: Severe acute respiratory syndrome coronavirus 2, mean ± standard deviation
[3] = Nonspecific cytotoxic effects (CytoTox 96 assay); format: cell-based; conditions: African green monkey (Vero E6) and cat (CRFK); Vero E6 and CRFK cells, 72 hr
Method: (§1) Nonspecific cytotoxic effects. […] Confluent cells grown in 96-well plates were incubated with various concentrations (1 to 100 μM) of each compound for 72 hr. Cell cytotoxicity was measured by a CytoTox 96 nonradioactive cytotoxicity assay kit (Promega, Madison, WI), and the CC50 values were calculated using a variable slope by GraphPad Prism software (Table 2).

SARS-CoV-2 [4] = format: in vivo, K18-hACE2 mice; conditions: for lung edema average score: score 0-4
SARS-CoV-2 3CLpro = SARS-CoV-2 3CLpro (Severe acute respiratory syndrome coronavirus 2 (2019-nCoV) (SARS-CoV-2), UniProt P0DTD1); assay: biochemical; format: biochemical
Vero E6 and CRFK cells = assay: Nonspecific cytotoxic effects (CytoTox 96 assay); format: cell-based
Method: as §1

SARS-CoV-2 [5] = conditions: cited from earlier work
SARS-CoV2 (enzyme) = SARS-CoV2 (enzyme) (Severe acute respiratory syndrome coronavirus 2 (2019-nCoV) (SARS-CoV-2), UniProt P0DTD1); assay: Inhibitory activity against SARS-CoV2 enzyme (Table 1); format: biochemical
[6] = Severe acute respiratory syndrome coronavirus 2, Vero C1008, read-out: EC50 (μM) VeroE6, VeroE6 cells
[7] = read-out: EC50 (μM) VeroE6, VeroE6 cells

Work on `[2H]C([2H])(OC(=O)N[C@@H](CC(C)C)C(=O)N[C@H](C=O)C[C@@H]1CCNC1=O)c1ccccc1` [Deuterated GC373-No2] yielded an EC50 (FIPV) of 0.05 µM.
`[2H]C([2H])(OC(=O)N[C@@H](CC(C)C)C(=O)N[C@H](C=O)C[C@@H]1CCNC1=O)c1ccccc1` [Compound 1, Phenylmethyl-d2 ((S)-4-methyl-1-oxo-1-(((S)-1-oxo-3-((S)-2-oxopyrrolidin-3-yl)propan-2-yl)amino)pentan-2-yl)carbamate] showed an EC50 (SARS-CoV-2 [1]; [6]) of 0.068 to 0.086 µM, an EC50 (SARS-CoV-2 [1]; [7]) of 0.068 ± 0.01 µM and an EC50 (SARS-CoV-2 [2]) of 0.086 ± 0.01 µM. The CC50 at 72 h [3] was greater than 100 µM.
Work on `[2H]c1c([2H])c([2H])c(C([2H])([2H])OC(=O)N[C@@H](CC(C)C)C(=O)N[C@H](C=O)C[C@@H]2CCNC2=O)c([2H])c1[2H]` [Compound 9, (Phenyl-d5)methyl-d2 ((S)-4-methyl-1-oxo-1-(((S)-1-oxo-3-((S)-2-oxopyrrolidin-3-yl)propan-2-yl)amino)pentan-2-yl)carbamate] yielded a CC50 at 72 h [3] greater than 100 µM.
Compound `[2H]C([2H])(OC(=O)N[C@@H](CC(C)C)C(=O)N[C@@H](C[C@@H]1CCNC1=O)C(O)S(=O)(=O)[O-])c1ccccc1.[Na+]` (stereo partly drawn) [Compound 2, Sodium (2S)-1-hydroxy-2-((S)-4-methyl-2-(((phenylmethoxy-d2)carbonyl)amino)pentan-amido)-3-((S)-2-oxopyrrolidin-3-yl)propane-1-sulfonate] has an EC50 (SARS-CoV-2 [1]; [6]) of 0.068 to 0.086 µM, an EC50 (SARS-CoV-2 [1]; [7]) of 0.086 ± 0.02 µM and an EC50 (SARS-CoV-2 [2]) of 0.069 ± 0.01 µM. The CC50 at 72 h [3] was greater than 100 µM, the “pathological changes and infectious virus in the brains” value (SARS-CoV-2 [4]; 2 and 5 dpi, detection limit 200 PFU/g) was “neither pathological changes nor infectious virus was detected” and the lung perivascular infiltrates (SARS-CoV-2 [4]; 2 dpi) was “Mild perivascular infiltrates”. For the same compound, the “lung edema average score” value (SARS-CoV-2 [4]; 2 dpi) was 0, the “lung virus titers versus vehicle” value (SARS-CoV-2 [4]; 2 dpi, second experiment) was “statistically significant reduction of virus titers” and the “lung edema average score” value (SARS-CoV-2 [4]; 5 dpi) was 2. For the same compound, the survival (SARS-CoV-2 [4]; first experiment: 2×10^3 pfu per mouse, 100 mg/kg/day once a day from 1 dpi, 15 dpi) was “All compound 2-treated mice gradually gained body weight and were alive at the end of the study”, the body weight loss (SARS-CoV-2 [4]; first experiment: 2×10^3 pfu per mouse, 100 mg/kg/day, 5-10 dpi, versus vehicle) was “loss was less severe compared to vehicle-treated mice” and the “lung perivascular infiltrations average score” value (SARS-CoV-2 [4]; mouse, in vivo) was 2.
For `[2H]C([2H])(OC(=O)N[C@@H](CC(C)C)C(=O)N[C@@H](C[C@@H]1CCNC1=O)C(OC(=O)CCCCC)S(=O)(=O)[O-])c1ccccc1.[Na+]` (stereo partly drawn) [Compound 4, Sodium (5S,8S)-5-isobutyl-3,6,11-trioxo-8-(((S)-2-oxopyrrolidin-3-yl)methyl)-1-phenyl-2,10-dioxa-4,7-diazahexadecane-9-sulfonate-1,1-d2], the IC50 (SARS-CoV-2 3CLpro) was 0.8 ± 0.1 µM, the “potency (IC50) in the enzyme assay compared to aldehyde and bisulfite counterparts” value (SARS-CoV-2 3CLpro) was “significantly increased IC50 values” and the CC50 at 72 h [3] was greater than 100 µM.
In the case of `[2H]C([2H])(OC(=O)N[C@@H](CC(C)C)C(=O)N[C@@H](C[C@@H]1CCNC1=O)C(=O)C(=O)NCc1ccccc1)c1ccccc1` [Compound 5, Phenylmethyl-d2 ((S)-1-(((S)-4-(benzylamino)-3,4-dioxo-1-((S)-2-oxopyrrolidin-3-yl)butan-2-yl)amino)-4-methyl-1-oxopentan-2-yl)carbamate], the IC50 (SARS-CoV-2 3CLpro) is reported as 1.31 ± 0.55 µM, the “potency (IC50) in the enzyme assay compared to aldehyde and bisulfite counterparts” value (SARS-CoV-2 3CLpro) is reported as “markedly decreased potency” and the CC50 at 72 h [3] is reported as greater than 100 µM.
In the case of `[2H]c1c([2H])c([2H])c(COC(=O)N[C@@H](CC(C)C)C(=O)N[C@@H](C[C@@H]2CCNC2=O)C(OC(=O)CCCCC)S(=O)(=O)[O-])c([2H])c1[2H].[Na+]` (stereo partly drawn) [Compound 8, Sodium (5S,8S)-5-isobutyl-3,6,11-trioxo-8-(((S)-2-oxopyrrolidin-3-yl)methyl)-1-(phenyl-d5)-2,10-dioxa-4,7-diazahexadecane-9-sulfonate], the IC50 (SARS-CoV-2 3CLpro) is reported as 0.68 ± 0.35 µM, the “potency (IC50) in the enzyme assay compared to aldehyde and bisulfite counterparts” value (SARS-CoV-2 3CLpro) is reported as “significantly increased IC50 values” and the CC50 at 72 h [3] is reported as greater than 100 µM.
With `[2H]c1c([2H])c([2H])c(C([2H])([2H])OC(=O)N[C@@H](CC(C)C)C(=O)N[C@H](C=O)C[C@@H]2CCNC2=O)c([2H])c1[2H]` [Deuterated GC373-No1] the EC50 (FIPV) was 0.05 µM.
`[2H]c1c([2H])c([2H])c(COC(=O)N[C@@H](CC(C)C)C(=O)N[C@@H](C[C@@H]2CCNC2=O)C(O)S(=O)(=O)[O-])c([2H])c1[2H].[Na+]` (stereo partly drawn) [Compound 7, Sodium (2S)-1-hydroxy-2-((S)-4-methyl-2-((((phenyl-d5)methoxy)carbonyl)amino)pentanamido)-3-((S)-2-oxopyrrolidin-3-yl)propane-1-sulfonate] gave an EC50 (SARS-CoV-2 [1]; [6]) of 0.068 to 0.086 µM, an EC50 (SARS-CoV-2 [1]; [7]) of 0.079 ± 0.01 µM and an EC50 (SARS-CoV-2 [2]) of 0.1 ± 0.01 µM. The CC50 at 72 h [3] was greater than 100 µM.
With `CC(C)C[C@H](NC(=O)OCc1ccccc1)C(=O)N[C@@H](C[C@@H]1CCNC1=O)C(O)S(=O)(=O)[O-].[Na+]` (stereo partly drawn) [GC376, reference compound] the EC50 (FIPV) was 0.05 µM, the EC50 (SARS-CoV-2 [1]; [6]) was 0.23 ± 0.01 µM and the cytotoxicity (Vero E6 and CRFK cells; up to 100 μM) was “did not show any cytotoxicity”. The survival (SARS-CoV-2 [5]; given three hours after virus inoculation that led to 100% fatality, versus vehicle) was “no difference in survival” and the “viral load and inflammation in the lungs” value (SARS-CoV-2 [5]; given three hours after virus inoculation, versus vehicle-treated controls) was “reduced viral load and inflammation”.
Compound `CC(C)C[C@H](NC(=O)OCc1ccccc1)C(=O)N[C@H](C=O)C[C@@H]1CCNC1=O` [Parental aldehyde, reference compound] has an EC50 (FIPV) of 0.05 µM.
`[2H]c1c([2H])c([2H])c(C([2H])([2H])OC(=O)N[C@@H](CC(C)C)C(=O)N[C@@H](C[C@@H]2CCNC2=O)C(O)S(=O)(=O)[O-])c([2H])c1[2H].[Na+]` (stereo in doubt) [Deuterated GC376-No1] showed an EC50 (FIPV) of 0.08 µM.
Work on `CC(C)C[C@H](NC(=O)OCc1ccccc1)C(=O)N[C@@H](C[C@@H]1CCNC1=O)C(O)S(=O)(=O)O` (stereo partly drawn) [Compound 10, Sodium(2S)-1-hydroxy-2-((S)-4-methyl-2-((((phenyl-d5)methoxy-d2)carbonyl)amino)pentanamido)-3-((S)-2-oxopyrrolidin-3-yl)propane-1-sulfonate] yielded a CC50 (Vero E6 and CRFK cells; Vero E6 and CRFK cells, 72 hr) greater than 100 µM.
In the case of `[2H]c1c([2H])c([2H])c(COC(=O)N[C@@H](CC(C)C)C(=O)N[C@H](C=O)C[C@@H]2CCNC2=O)c([2H])c1[2H]` [Compound 6, (Phenyl-d5)methyl ((S)-4-methyl-1-oxo-1-(((S)-1-oxo-3-((S)-2-oxopyrrolidin-3-yl)propan-2-yl)amino)pentan-2-yl)carbamate], the EC50 (SARS-CoV-2 [1]; [6]) is reported as 0.068 to 0.086 µM, the EC50 (SARS-CoV-2 [1]; [7]) is reported as 0.077 ± 0.01 µM and the EC50 (SARS-CoV-2 [2]) is reported as 0.075 ± 0.01 µM. For the same compound, the CC50 at 72 h [3] was greater than 100 µM.
Work on `[2H]C([2H])(OC(=O)N[C@@H](CC(C)C)C(=O)N[C@@H](C[C@@H]1CCNC1=O)C(OC(C)=O)S(=O)(=O)[O-])c1ccccc1.[Na+]` (stereo partly drawn) [Prodrug of GC1129-No1] yielded an EC50 (FIPV) of 0.06 µM and an EC50 (SARS-CoV2 (enzyme)) of 0.7 µM.
For `[2H]C([2H])(OC(=O)N[C@@H](CC(C)C)C(=O)N[C@@H](C[C@@H]1CCNC1=O)C(OC(C)=O)S(=O)(=O)[O-])c1ccccc1.[Na+]` (stereo partly drawn) [Compound 3, Sodium (5S,8S)-5-isobutyl-3,6,11-trioxo-8-(((S)-2-oxopyrrolidin-3-yl)methyl)-1-phenyl-2,10-dioxa-4,7-diazadodecane-9-sulfonate-1,1-d2], the IC50 (SARS-CoV-2 3CLpro) was 0.71 ± 0.06 µM, the “potency (IC50) in the enzyme assay compared to aldehyde and bisulfite counterparts” value (SARS-CoV-2 3CLpro) was “significantly increased IC50 values” and the CC50 at 72 h [3] was greater than 100 µM.
For `[2H]c1c([2H])c([2H])c(C([2H])([2H])OC(=O)N[C@@H](CC(C)C)C(=O)N[C@@H](C[C@@H]2CCNC2=O)C(OC(=O)CCCCC)S(=O)(=O)[O-])c([2H])c1[2H].[Na+]` (stereo partly drawn) [Compound 11, Sodium (5S,8S)-5-isobutyl-3,6,11-trioxo-8-(((S)-2-oxopyrrolidin-3-yl)methyl)-1-(phenyl-d5)-2,10-dioxa-4,7-diazahexadecane-9-sulfonate-1,1-d2], the IC50 (SARS-CoV-2 3CLpro) was 0.77 ± 0.12 µM, the “potency (IC50) in the enzyme assay compared to aldehyde and bisulfite counterparts” value (SARS-CoV-2 3CLpro) was “significantly increased IC50 values” and the CC50 at 72 h [3] was greater than 100 µM.
Compound `[2H]C([2H])(OC(=O)N[C@@H](CC(C)C)C(=O)N[C@@H](C[C@@H]1CCNC1=O)C(OC(=O)CCCCC)S(=O)(=O)[O-])c1ccccc1.[Na+]` (stereo partly drawn) [Prodrug of GC1129-No2] has an EC50 (FIPV) of 0.06 µM and an EC50 (SARS-CoV2 (enzyme)) of 0.8 µM.
